Legend:
Format in all cases: cell-based
SW480 colon cancer cells = assay: Cell viability assay (CellTiter-Blue); settings: Homo sapiens, 96 h, four days; for inhibition at 10 µM: given where EC50 >10 μM, read-out: percent inhibition at 10 μM
How it was run: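 Resazurin reduction (Ex 560/Em 590 nm, ~3 h reagent incubation) served as the viability read-out after SW480 cells were treated for four days at 37 °C. Doses ran from 10 μM down to 0.0045 μM in eight 1:3 steps. Curves fitted non-linearly for EC50, else % inhibition at 10 μM reported.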

[1] = test system: primary human fibroblasts derived from IPF patients (LL29 cells) treated with TGF-β1; assay: Inhibition of fibrotic process, αSMA staining in TGF-β1 treated LL29 fibroblasts; settings: Fibroblast; for EC50: 96 h, % αSMA positive LL29 cells, TGF-β1 20 ng/mL, 4 days; for inhibition at 10 µM: given where EC50 >10 μM, αSMA, LL29 cells, TGF-β1, read-out: percent inhibition at 10 μM
How it was run: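 EC50 values come from non-linear fits of the αSMA-positive percentage among SYTOX-excluded live cells, normalized to TGF-β1 plus DMSO controls, or appear as % inhibition at 10 μM when above 10 μM. Fibrosis was induced in IPF-derived LL29 fibroblasts by 20 ng/mL TGF-β1 over 4 days, with 1:2 compound dilutions from 10 μM.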

[2] = test system: Wnt activity (Sp5-Luc reporter, SW480 colon carcinoma cells); assay: Wnt activity screening assay, Sp5-Luc reporter gene in SW480 cells; settings: Homo sapiens; for EC50: overnight incubation; for inhibition at 10 µM: given where EC50 >10 μM, read-out: percent inhibition at 10 μM
How it was run: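 SW480 cells stably transduced with an Sp5 promoter (eight TCF/LEF sites)–firefly luciferase lentiviral reporter, plated at 4,000 cells/well in 1% FBS medium with compounds (10-point 1:3 series from 10 μM, 0.1% DMSO) overnight at 37 °C. BrightGlo luminescence normalised to DMSO; EC50 by four-parameter fit, else % inhibition at 10 μM.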

Compound	EC50 (SW480 colon cancer cells)	EC50 [1]	EC50 [2]	inhibition at 10 µM (SW480 colon cancer cells)	inhibition at 10 µM [1]	inhibition at 10 µM [2]
CC(C)CC(=O)Nc1cncc(-c2cc3c(-c4cc5c(-c6ccc(F)cc6)ccnc5[nH]4)n[nH]c3cn2)c1 [Compound 30, N-(5-(3-(4-(4-Fluorophenyl)-1H-pyrrolo[2,3-b]pyridin-2-yl)-1H-pyrazolo [3,4-c]pyridin-5-yl)pyridin-3-yl)-3-methylbutanamide]	2.47 µM	0.82 µM	0.444 µM	–	–	–
O=C(Cc1ccccc1)Nc1cncc(-c2cc3c(-c4cc5cccnc5[nH]4)n[nH]c3cn2)c1 [Compound 262, N-(5-(3-(1H-Pyrrolo[2,3-b]pyridin-2-yl)-1H-pyrazolo[3,4-c]pyridin-5-yl)pyridin-3-yl)-2-phenylacetamide]	> 10 µM	> 10 µM	> 10 µM	26.5%	45.5%	9.1%
CN1CCN(c2ccnc3[nH]c(-c4n[nH]c5cnc(-c6cncc(CNCC7CCCC7)c6)cc45)cc23)CC1 [Compound 249, 1-Cyclopentyl-N-((5-(3-(4-(4-methylpiperazin-1-yl)-1H-pyrrolo[2,3-b]pyridin-2-yl)-1H-pyrazolo[3,4-c]pyridin-5-yl)pyridin-3-yl)methyl)methanamine]	4.29 µM	6.92 µM	> 10 µM	–	–	41.4%
Oc1cncc(-c2cc3c(-c4cc5c(-c6ccc(F)cc6)ccnc5[nH]4)n[nH]c3cn2)c1 [Compound 533, 5-(3-(4-(4-Fluorophenyl)-1H-pyrrolo[2,3-b]pyridin-2-yl)-1H-pyrazolo[3,4-c]pyridin-5-yl)pyridin-3-ol]	0.483 µM	3.54 µM	0.456 µM	–	–	–
CCCC(=O)Nc1cncc(-c2cc3c(-c4cc5c(-c6cc(F)cc(NCCN(C)C)c6)ccnc5[nH]4)n[nH]c3cn2)c1 [Compound 465, N-(5-(3-(4-(3-((2-(Dimethylamino)ethyl)amino)-5-fluorophenyl)-1H-pyrrolo [2,3-b]pyridin-2-yl)-1H-pyrazolo[3,4-c]pyridin-5-yl)pyridin-3-yl)butyramide]	> 10 µM	> 10 µM	> 10 µM	10.6%	43%	16.1%
CN1CCN(c2ccnc3[nH]c(-c4n[nH]c5cnc(-c6cn[nH]c6)cc45)cc23)CC1 [Compound 635, 3-(4-(4-Methylpiperazin-1-yl)-1H-pyrrolo[2,3-b]pyridin-2-yl)-5-(1H-pyrazol-4-yl)-1H-pyrazolo[3,4-c]pyridine]	> 10 µM	> 10 µM	> 10 µM	10.7%	44.9%	25.4%
c1csc(-c2ccnc3[nH]c(-c4n[nH]c5cnc(-c6cncc(OC7CCCCC7)c6)cc45)cc23)c1 [Compound 703, 5-(5-(Cyclohexyloxy)pyridin-3-yl)-3-(4-(thiophen-2-yl)-1H-pyrrolo[2,3-b]pyridin-2-yl)-1H-pyrazolo[3,4-c]pyridine]	> 10 µM	1.73 µM	> 10 µM	2.7%	–	13.6%
CN1CCN(c2ccnc3[nH]c(-c4n[nH]c5cnc(-c6cncc(N(C)C)c6)cc45)cc23)CC1 [Compound 231, N,N-Dimethyl-5-(3-(4-(4-methylpiperazin-1-yl)-1H-pyrrolo[2,3-b]pyridin-2-yl)-1H-pyrazolo[3,4-c]pyridin-5-yl)pyridin-3-amine]	> 10 µM	> 10 µM	> 10 µM	9.2%	41.8%	8.2%
Cn1cc(-c2cc3c(-c4cc5cccnc5[nH]4)n[nH]c3cn2)cn1 [Compound 652, 5-(1-Methyl-1H-pyrazol-4-yl)-3-(1H-pyrrolo[2,3-b]pyridin-2-yl)-1H-pyrazolo[3,4-c]pyridine]	> 10 µM	0.473 µM	> 10 µM	0%	–	21.6%
Nc1cncc(-c2cc3c(-c4cc5c(-c6ccccc6F)ccnc5[nH]4)n[nH]c3cn2)c1 [Compound 59, 5-(3-(4-(2-Fluorophenyl)-1H-pyrrolo[2,3-b]pyridin-2-yl)-1H-pyrazolo[3,4-c]pyridin-5-yl)pyridin-3-amine]	> 10 µM	0.386 µM	> 10 µM	16.4%	–	14.3%
O=C(Nc1cncc(-c2cc3c(-c4cc5cccnc5[nH]4)n[nH]c3cn2)c1)C1CCCCC1 [Compound 275, N-(5-(3-(1H-Pyrrolo[2,3-b]pyridin-2-yl)-1H-pyrazolo[3,4-c]pyridin-5-yl)pyridin-3-yl)cyclohexanecarboxamide]	> 10 µM	2.52 µM	> 10 µM	9.5%	–	14%
CCNCc1cncc(-c2cc3c(-c4cc5c(-c6cccnc6)ccnc5[nH]4)n[nH]c3cn2)c1 [Compound 90, N-((5-(3-(4-(Pyridin-3-yl)-1H-pyrrolo[2,3-b]pyridin-2-yl)-1H-pyrazolo[3,4-c]pyridin-5-yl)pyridin-3-yl)methyl)ethanamine]	> 10 µM	1.63 µM	3.2 µM	16%	–	–
CN(C)Cc1cncc(-c2cc3c(-c4cc5c(-c6ccccc6F)ccnc5[nH]4)n[nH]c3cn2)c1 [Compound 69, 1-(5-(3-(4-(2-Fluorophenyl)-1H-pyrrolo[2,3-b]pyridin-2-yl)-1H-pyrazolo [3,4-c]pyridin-5-yl)pyridin-3-yl)-N,N-dimethylmethanamine]	> 10 µM	> 10 µM	> 10 µM	13.2%	0%	11.3%
Fc1cccc(-c2ccnc3[nH]c(-c4n[nH]c5cnc(-c6cncc(OCc7ccccc7)c6)cc45)cc23)c1 [Compound 518, 5-(5-(Benzyloxy)pyridin-3-yl)-3-(4-(3-fluorophenyl)-1H-pyrrolo[2,3-b]pyridin-2-yl)-1H-pyrazolo[3,4-c]pyridine]	> 10 µM	> 10 µM	> 10 µM	41.5%	27.5%	3.3%
FC1(F)CCN(Cc2cncc(-c3cc4c(-c5cc6cccnc6[nH]5)n[nH]c4cn3)c2)C1 [Compound 278, 5-(5-((3,3-Difluoropyrrolidin-1-yl)methyl)pyridin-3-yl)-3-(1H-pyrrolo[2,3-b]pyridin-2-yl)-1H-pyrazolo[3,4-c]pyridine]	5.01 µM	0.111 µM	1.35 µM	–	–	–
O=C(Nc1cncc(-c2cc3c(-c4cc5c(-c6cccnc6)ccnc5[nH]4)n[nH]c3cn2)c1)c1ccccc1 [Compound 95, N-(5-(3-(4-(Pyridin-3-yl)-1H-pyrrolo[2,3-b]pyridin-2-yl)-1H-pyrazolo[3,4-c]pyridin-5-yl)pyridin-3-yl)benzamide]	> 10 µM	> 10 µM	> 10 µM	14.2%	0.8%	8.7%
CC(C)CC(=O)Nc1cncc(-c2cc3c(-c4cc5cccnc5[nH]4)n[nH]c3cn2)c1 [Compound 254, N-(5-(3-(1H-Pyrrolo[2,3-b]pyridin-2-yl)-1H-pyrazolo[3,4-c]pyridin-5-yl)pyridin-3-yl)-3-methylbutanamide]	> 10 µM	9.98 µM	> 10 µM	20.2%	–	12.4%
CCNCc1cncc(-c2cc3c(-c4cc5c(-c6ccccc6F)ccnc5[nH]4)n[nH]c3cn2)c1 [Compound 62, N-((5-(3-(4-(2-Fluorophenyl)-1H-pyrrolo[2,3-b]pyridin-2-yl)-1H-pyrazolo [3,4-c]pyridin-5-yl)pyridin-3-yl)methyl)ethanamine]	> 10 µM	> 10 µM	> 10 µM	15.7%	64.9%	6.8%
CC(C)CC(=O)Nc1cncc(-c2cc3c(-c4cc5c(-c6ccncc6)ccnc5[nH]4)n[nH]c3cn2)c1 [Compound 114, 3-Methyl-N-(5-(3-(4-(pyridin-4-yl)-1H-pyrrolo[2,3-b]pyridin-2-yl)-1H-pyrazolo[3,4-c]pyridin-5-yl)pyridin-3-yl)butanamide]	> 10 µM	> 10 µM	> 10 µM	0%	0%	9.6%
CN(C)Cc1cncc(-c2cc3c(-c4cc5c(-c6ccncc6)ccnc5[nH]4)n[nH]c3cn2)c1 [Compound 125, N,N-Dimethyl-1-(5-(3-(4-(pyridin-4-yl)-1H-pyrrolo[2,3-b]pyridin-2-yl)-1H-pyrazolo[3,4-c]pyridin-5-yl)pyridin-3-yl)methanamine]	> 10 µM	5.01 µM	> 10 µM	3.9%	–	12.6%

From US10285982B2, “3-(1H-pyrrolo[2,3-B]pyridin-2-yl)-1H-pyrazolo[3,4-C]pyridines and therapeutic uses thereof” (Samumed, LLC, priority 2015, dated 2019)
